In ChEMBL document CHEMBL6083262, “Stereorandomized Oncocins with Preserved Ribosome Binding and Antibacterial Activity” (J Med Chem, 2024) one finds MHC and MIC data, which are given here for seven molecules.

A short description of series [1]: Hemolytic activity in human RBC incubated for 4 hrs. The series is classed as toxicity, cell-based. Particulars: erythrocyte.
The test system of series [2] is Pseudomonas aeruginosa. The experiment in a line: Antibacterial activity against multidrug-resistant Pseudomonas aeruginosa PA14 4.18 harboring pmrB mutant incubated for 16 to 20 hrs in full muller hinton medium by broth microdilution method. The series is classed as functional. Particulars: time 16-20 hrs. Background: Broth dilution looks for growth in wells or tubes with falling amounts of substance.

For series [3], the system named is Pseudomonas aeruginosa. The experiment in a line: Antibacterial activity against multidrug-resistant Pseudomonas aeruginosa clinical isolate ZEM9A incubated for 16 to 20 hrs in full muller hinton medium by broth microdilution method. Particulars: time 16-20 hrs. It counts as functional.
Series [4] concerns Pseudomonas aeruginosa. The experiment in a line: Antibacterial activity against multidrug-resistant Pseudomonas aeruginosa PA14 4.13 harboring phoQ mutant incubated for 16 to 20 hrs in full muller hinton medium by broth microdilution method. The series is classed as functional. Particulars: time 16-20 hrs.
In series [5] the test system is Pseudomonas aeruginosa. Kind of series: Antibacterial activity against multidrug-resistant Pseudomonas aeruginosa PA14 incubated for 16 to 20 hrs in full muller hinton medium by broth microdilution method. It counts as functional. Particulars: time 16-20 hrs.
The subject of series [6] is Staphylococcus aureus. The experiment in a line: Antimicrobial activity against methicillin-resistant Staphylococcus aureus COL incubated for 16 to 20 hrs in full muller hinton medium by broth microdilution method. The series is classed as functional. Particulars: time 16-20 hrs.
Series [7] concerns Pseudomonas aeruginosa. Kind of series: Antibacterial activity against multidrug-resistant Pseudomonas aeruginosa PA14 2P4 harboring pmrB mutant incubated for 16 to 20 hrs in full muller hinton medium by broth microdilution method. It counts as functional. Particulars: time 16-20 hrs.
In series [8] the test system is Staphylococcus aureus. The experiment in a line: Antimicrobial activity against methicillin-resistant Staphylococcus aureus COL incubated for 16 to 20 hrs in 12.5 % muller hinton medium by broth microdilution method. The series is classed as functional. Particulars: time 16-20 hrs.
Another series concerns Acinetobacter baumannii. Kind of series: Antimicrobial activity against Acinetobacter baumannii ATCC 19606 incubated for 16 to 20 hrs in full muller hinton medium by broth microdilution method. It counts as functional. Particulars: time 16-20 hrs.
The test system of series [9] is Pseudomonas aeruginosa. The experiment in a line: Antimicrobial activity against Pseudomonas aeruginosa PAO1 incubated for 16 to 20 hrs in full muller hinton medium by broth microdilution method. The series is classed as functional. Particulars: time 16-20 hrs.
Series [10] has as its system Klebsiella pneumoniae. The experiment in a line: Antimicrobial activity against Klebsiella pneumoniae NCTC 418 incubated for 16 to 20 hrs in full muller hinton medium by broth microdilution method. It counts as functional. Particulars: time 16-20 hrs.
For series [11], the system named is Klebsiella pneumoniae. The experiment in a line: Antimicrobial activity against Klebsiella pneumoniae NCTC 418 incubated for 16 to 20 hrs in 12.5 % muller hinton medium by broth microdilution method. The series is classed as functional. Particulars: time 16-20 hrs.
For series [12], the system named is Pseudomonas aeruginosa. Kind of series: Antimicrobial activity against Pseudomonas aeruginosa PAO1 incubated for 16 to 20 hrs in 12.5 % muller hinton medium by broth microdilution method. It counts as functional. Particulars: time 16-20 hrs.
The subject of the next series is Escherichia coli. The experiment in a line: Antimicrobial activity against Escherichia coli W3110 incubated for 16 to 20 hrs in 12.5 % muller hinton medium by broth microdilution method. The series is classed as functional. Particulars: time 16-20 hrs.

Each structure is given as a SMILES string. ≈ marks a conversion by molar mass, not a printed value. Non-standard residues stand in square brackets, D forms with d. Residues, ends and D or L forms follow the SMILES beside them. ξ: configuration not given here. ξP = O=C(O)C1CCCN1 A value given as a limit tells only on which side of the number the result lay.

In general, MIC refers to the lowest concentration found to suppress growth. As to `CC[C@H](C)[C@H](NC(=O)[C@@H](CCCNC(=N)N)NC(=O)[C@H](CCCNC(=N)N)NC(=O)[C@@H]1CCCN1C(=O)[C@@H]1CCCN1C(=O)[C@H](CCCNC(=N)N)NC(=O)[C@@H]1CCCN1C(=O)[C@H](CCCNC(=N)N)NC(=O)[C@@H]1CCCN1C(=O)[C@H](CC(C)C)NC(=O)[C@H](Cc1ccc(O)cc1)NC(=O)[C@@H]1CCCN1C(=O)[C@@H]1CCCN1C(=O)[C@H](CCCCN)NC(=O)[C@H](CC(=O)O)NC(=O)[C@@H](N)C(C)C)C(=O)N[C@@H](Cc1ccc(O)cc1)C(=O)N[C@@H](CC(N)=O)C(=O)N[C@H](CCCNC(=N)N)C(N)=O` (H-VDKPPYLPRPRPPR[dR]IYN[dR]-NH2), in [1], the MHC is > 1000 µg/mL. The minimum inhibitory concentration (MIC) is > 32 mg/L with Pseudomonas aeruginosa [2]; > 64 mg/L with Pseudomonas aeruginosa [3]; > 32 mg/L against Pseudomonas aeruginosa [4]; > 32 mg/L in the series on Pseudomonas aeruginosa [5]; > 64 mg/L against Staphylococcus aureus [6]; > 64 mg/L against Pseudomonas aeruginosa [7].

Consider `CC[C@H](C)[C@H](NC(=O)[C@H](CCCNC(=N)N)NC(=O)[C@H](CCCNC(=N)N)NC(=O)[C@@H]1CCCN1C(=O)[C@@H]1CCCN1C(=O)[C@H](CCCNC(=N)N)NC(=O)[C@@H]1CCCN1C(=O)[C@@H](CCCNC(=N)N)NC(=O)[C@@H]1CCCN1C(=O)[C@H](CC(C)C)NC(=O)[C@H](Cc1ccc(O)cc1)NC(=O)[C@@H]1CCCN1C(=O)[C@@H]1CCCN1C(=O)[C@H](CCCCN)NC(=O)[C@H](CC(=O)O)NC(=O)[C@@H](N)C(C)C)C(=O)N[C@@H](Cc1ccc(O)cc1)C(=O)N[C@@H](CC(N)=O)C(=O)N[C@@H](CCCNC(=N)N)C(N)=O` (H-VDKPPYLP[dR]PRPPRRIYNR-NH2), for which, in [1], the MHC is > 1000 µg/mL. The MIC in the series with Staphylococcus aureus [8], in the series on Acinetobacter baumannii, against Staphylococcus aureus [6] and in the series with Pseudomonas aeruginosa [9] was > 64 mg/L throughout.

Take `CC[C@H](C)[C@H](NC(=O)[C@H](CCCNC(=N)N)NC(=O)[C@H](CCCNC(=N)N)NC(=O)[C@@H]1CCCN1C(=O)[C@@H]1CCCN1C(=O)[C@H](CCCNC(=N)N)NC(=O)[C@@H]1CCCN1C(=O)[C@H](CCCNC(=N)N)NC(=O)[C@H]1CCCN1C(=O)[C@H](CC(C)C)NC(=O)[C@H](Cc1ccc(O)cc1)NC(=O)[C@@H]1CCCN1C(=O)[C@@H]1CCCN1C(=O)[C@H](CCCCN)NC(=O)[C@H](CC(=O)O)NC(=O)[C@@H](N)C(C)C)C(=O)N[C@@H](Cc1ccc(O)cc1)C(=O)N[C@@H](CC(N)=O)C(=O)N[C@@H](CCCNC(=N)N)C(N)=O` (H-VDKPPYL[dP]RPRPPRRIYNR-NH2): the MHC in series [1] is > 1000 µg/mL. The MIC against Acinetobacter baumannii, with Staphylococcus aureus [6], in the series on Klebsiella pneumoniae [10] and against Pseudomonas aeruginosa [9] was > 64 mg/L in each case.

As to `CC[C@H](C)[C@H](NC(=O)[C@H](CCCNC(=N)N)NC(=O)[C@H](CCCNC(=N)N)NC(=O)[C@@H]1CCCN1C(=O)[C@@H]1CCCN1C(=O)[C@H](CCCNC(=N)N)NC(=O)[C@@H]1CCCN1C(=O)[C@H](CCCNC(=N)N)NC(=O)[C@@H]1CCCN1C(=O)[C@H](CC(C)C)NC(=O)[C@H](Cc1ccc(O)cc1)NC(=O)[C@H]1CCCN1C(=O)[C@@H]1CCCN1C(=O)[C@H](CCCCN)NC(=O)[C@H](CC(=O)O)NC(=O)[C@@H](N)C(C)C)C(=O)N[C@@H](Cc1ccc(O)cc1)C(=O)N[C@@H](CC(N)=O)C(=O)N[C@@H](CCCNC(=N)N)C(N)=O` (H-VDKP[dP]YLPRPRPPRRIYNR-NH2), the MHC in [1] is > 1000 µg/mL. The MIC is > 64 mg/L in the series on Acinetobacter baumannii; > 64 mg/L against Staphylococcus aureus [6]; > 64 mg/L with Klebsiella pneumoniae [10]; > 16 mg/L in the series with Klebsiella pneumoniae [11]; > 64 mg/L in the series with Pseudomonas aeruginosa [9]; > 16 mg/L with Pseudomonas aeruginosa [12].

For the molecule `CC[C@H](C)[C@H](NC(=O)[C@H](CCCNC(=N)N)NC(=O)[C@H](CCCNC(=N)N)NC(=O)[C@@H]1CCCN1C(=O)[C@@H]1CCCN1C(=O)[C@H](CCCNC(=N)N)NC(=O)[C@@H]1CCCN1C(=O)[C@H](CCCNC(=N)N)NC(=O)[C@@H]1CCCN1C(=O)[C@H](CC(C)C)NC(=O)[C@H](Cc1ccc(O)cc1)NC(=O)[C@@H]1CCCN1C(=O)[C@H]1CCCN1C(=O)[C@H](CCCCN)NC(=O)[C@H](CC(=O)O)NC(=O)[C@@H](N)C(C)C)C(=O)N[C@@H](Cc1ccc(O)cc1)C(=O)N[C@@H](CC(N)=O)C(=O)N[C@@H](CCCNC(=N)N)C(N)=O` (H-VDK[dP]PYLPRPRPPRRIYNR-NH2), the MHC in [1] was > 1000 µg/mL. Besides, the figures for the MIC in the series on Staphylococcus aureus [6], in the series on Pseudomonas aeruginosa [9] and against Pseudomonas aeruginosa [12] were > 64 mg/L, > 64 mg/L and > 16 mg/L, respectively.

As for `CC[C@H](C)[C@H](NC(=O)[C@H](CCCNC(=N)N)NC(=O)[C@H](CCCNC(=N)N)NC(=O)[C@@H]1CCCN1C(=O)[C@@H]1CCCN1C(=O)[C@H](CCCNC(=N)N)NC(=O)[C@@H]1CCCN1C(=O)[C@H](CCCNC(=N)N)NC(=O)[C@@H]1CCCN1C(=O)[C@H](CC(C)C)NC(=O)[C@H](Cc1ccc(O)cc1)NC(=O)[C@H]1CCCN1C(=O)[C@H]1CCCN1C(=O)[C@H](CCCCN)NC(=O)[C@H](CC(=O)O)NC(=O)[C@@H](N)C(C)C)C(=O)N[C@@H](Cc1ccc(O)cc1)C(=O)N[C@@H](CC(N)=O)C(=O)N[C@@H](CCCNC(=N)N)C(N)=O` (H-VDK[dP][dP]YLPRPRPPRRIYNR-NH2), the MHC in [1] was > 1000 µg/mL. The minimal inhibitory concentration (MIC) in the series with Staphylococcus aureus [8] is > 64 mg/L; in the series with Acinetobacter baumannii, > 64 mg/L; in the series with Staphylococcus aureus [6] it was > 64 mg/L; against Klebsiella pneumoniae [10], > 64 mg/L; with Klebsiella pneumoniae [11], > 16 mg/L; in the series on Pseudomonas aeruginosa [9] it was > 64 mg/L. The minimum inhibitory concentration (MIC) in the series on Pseudomonas aeruginosa [12] was > 16 mg/L.

As for `CC[C@H](C)[C@H](NC(=O)[C@H](CCCNC(=N)N)NC(=O)[C@H](CCCNC(=N)N)NC(=O)[C@@H]1CCCN1C(=O)[C@@H]1CCCN1C(=O)[C@H](CCCNC(=N)N)NC(=O)[C@@H]1CCCN1C(=O)[C@H](CCCNC(=N)N)NC(=O)[C@@H]1CCCN1C(=O)[C@H](CC(C)C)NC(=O)[C@H](Cc1ccc(O)cc1)NC(=O)C1CCCN1C(=O)C1CCCN1C(=O)[C@H](CCCCN)NC(=O)[C@H](CC(=O)O)NC(=O)[C@@H](N)C(C)C)C(=O)N[C@@H](Cc1ccc(O)cc1)C(=O)N[C@@H](CC(N)=O)C(=O)N[C@@H](CCCNC(=N)N)C(N)=O` (some centres not stated) (H-VDK[ξP][ξP]YLPRPRPPRRIYNR-NH2), the MHC in series [1] was > 1000 µg/mL. Also, the MIC with Staphylococcus aureus [6] was > 64 mg/L; in the series on Klebsiella pneumoniae [11] it was 8 mg/L (≈ 3.35 µM); against Pseudomonas aeruginosa [9] it was > 64 mg/L; against Pseudomonas aeruginosa [12], > 16 mg/L; against Escherichia coli, 4 mg/L (≈ 1.67 µM).
